# Measurements: the OligoGym collection
# HELM strings list units from the 5' end as sugar, base in round brackets, then linkage (d deoxyribose, r ribose, m 2'-O-methyl, p phosphodiester). Strings are as the collection lists them; they lack the last nucleoside at the 3' end of the tested compound. [moe] = 2'-O-(2-methoxyethyl) (MOE); [sp] = phosphorothioate linkage; [m5C] = 5-methylcytosine
# Target: UBE3A-ATS
# Test: mouse, dose not given
# Conditions: ASO
row,Substance,3 h FOB score [score 0-7]
1,RNA1{[moe](G)[sp].[moe](G)p.[moe](A)p.[moe](T)p.[moe](T)p.d(T)[sp].d(T)[sp].d(A)[sp].d(T)[sp].d(T)[sp].d(G)[sp].d(G)[sp].d(T)[sp].d([m5C])[sp].d(A)[sp].[moe](T)p.[moe]([m5C])p.[moe](T)[sp].[moe]([m5C])}$$$$ (last 3' nucleoside missing),5
2,RNA1{[moe](G)[sp].[moe](G)p.[moe](A)p.[moe](T)p.[moe](T)p.d([m5C])[sp].d(A)[sp].d(A)[sp].d(T)[sp].d(A)[sp].d(G)[sp].d(T)[sp].d(G)[sp].d(T)[sp].d(A)[sp].[moe](G)p.[moe](G)p.[moe](T)[sp].[moe](G)}$$$$ (last 3' nucleoside missing),7
3,RNA1{[moe](G)[sp].[moe](G)p.[moe](A)p.[moe]([m5C])p.[moe](A)p.d(G)[sp].d([m5C])[sp].d(T)[sp].d(G)[sp].d(T)[sp].d(G)[sp].d(T)[sp].d(G)[sp].d(G)[sp].d(A)[sp].[moe](G)p.[moe](G)p.[moe](G)[sp].[moe](A)}$$$$ (last 3' nucleoside missing),5.5
4,RNA1{[moe](G)[sp].[moe](G)p.[moe](A)p.[moe]([m5C])p.[moe](A)p.d([m5C])[sp].d(T)[sp].d([m5C])[sp].d(T)[sp].d([m5C])[sp].d(G)[sp].d([m5C])[sp].d(T)[sp].d(G)[sp].d(A)[sp].[moe](G)p.[moe](G)p.[moe](A)[sp].[moe]([m5C])}$$$$ (last 3' nucleoside missing),4.5
5,RNA1{[moe](G)[sp].[moe](G)p.[moe](A)p.[moe]([m5C])p.[moe](T)p.d(T)[sp].d(G)[sp].d(T)[sp].d([m5C])[sp].d(T)[sp].d(T)[sp].d(A)[sp].d(T)[sp].d(G)[sp].d(G)[sp].[moe]([m5C])p.[moe](T)p.[moe](G)[sp].[moe]([m5C])}$$$$ (last 3' nucleoside missing),1
6,RNA1{[moe](G)[sp].[moe](G)p.[moe](G)p.[moe](A)p.[moe](A)p.d(G)[sp].d(T)[sp].d([m5C])[sp].d(T)[sp].d(A)[sp].d(G)[sp].d(G)[sp].d(T)[sp].d([m5C])[sp].d(T)[sp].[moe]([m5C])p.[moe](A)p.[moe]([m5C])[sp].[moe](G)}$$$$ (last 3' nucleoside missing),3.2
7,RNA1{[moe](G)[sp].[moe](G)p.[moe](G)p.[moe](A)p.[moe](A)p.d([m5C])[sp].d(A)[sp].d([m5C])[sp].d(A)[sp].d([m5C])[sp].d([m5C])[sp].d(A)[sp].d(T)[sp].d(T)[sp].d([m5C])[sp].[moe](A)p.[moe](G)p.[moe]([m5C])[sp].[moe](A)}$$$$ (last 3' nucleoside missing),4.5
8,RNA1{[moe](G)[sp].[moe](G)p.[moe](G)p.[moe](A)p.[moe](G)p.d(G)[sp].d(A)[sp].d(G)[sp].d(T)[sp].d([m5C])[sp].d([m5C])[sp].d([m5C])[sp].d([m5C])[sp].d(A)[sp].d(G)[sp].[moe](A)p.[moe](T)p.[moe](A)[sp].[moe](A)}$$$$ (last 3' nucleoside missing),1.2
9,RNA1{[moe](G)[sp].[moe](G)p.[moe](G)p.[moe](A)p.[moe](T)p.d(A)[sp].d(T)[sp].d(A)[sp].d(T)[sp].d([m5C])[sp].d(A)[sp].d([m5C])[sp].d(T)[sp].d(T)[sp].d(G)[sp].[moe](G)p.[moe](A)p.[moe](G)[sp].[moe]([m5C])}$$$$ (last 3' nucleoside missing),4
10,RNA1{[moe](G)[sp].[moe](G)p.[moe](G)p.[moe](A)p.[moe](T)p.d(T)[sp].d(T)[sp].d(A)[sp].d([m5C])[sp].d([m5C])[sp].d([m5C])[sp].d(A)[sp].d(T)[sp].d(T)[sp].d(G)[sp].[moe]([m5C])p.[moe](A)p.[moe](A)[sp].[moe](G)}$$$$ (last 3' nucleoside missing),1
11,RNA1{[moe](G)[sp].[moe](G)p.[moe](G)p.[moe](T)p.[moe](A)p.d(G)[sp].d(A)[sp].d(A)[sp].d(G)[sp].d(A)[sp].d([m5C])[sp].d(T)[sp].d(A)[sp].d(G)[sp].d([m5C])[sp].[moe](A)p.[moe](T)p.[moe](A)[sp].[moe]([m5C])}$$$$ (last 3' nucleoside missing),5.8
12,RNA1{[moe](G)[sp].[moe](G)p.[moe](G)p.[moe](T)p.[moe](A)p.d(T)[sp].d(T)[sp].d(G)[sp].d([m5C])[sp].d(T)[sp].d(G)[sp].d(T)[sp].d([m5C])[sp].d([m5C])[sp].d(A)[sp].[moe](A)p.[moe](A)p.[moe](T)[sp].[moe](G)}$$$$ (last 3' nucleoside missing),6.8
13,RNA1{[moe](G)[sp].[moe](G)p.[moe](G)p.[moe](T)p.[moe](A)p.d([m5C])[sp].d(T)[sp].d(A)[sp].d(T)[sp].d(G)[sp].d(T)[sp].d(T)[sp].d(G)[sp].d(T)[sp].d([m5C])[sp].[moe](A)p.[moe]([m5C])p.[moe](T)[sp].[moe](G)}$$$$ (last 3' nucleoside missing),6
14,RNA1{[moe](G)[sp].[moe](G)p.[moe](G)p.[moe](T)p.[moe](T)p.d(A)[sp].d([m5C])[sp].d(T)[sp].d(T)[sp].d(T)[sp].d([m5C])[sp].d([m5C])[sp].d(A)[sp].d(A)[sp].d(T)[sp].[moe](A)p.[moe](G)p.[moe](A)[sp].[moe](G)}$$$$ (last 3' nucleoside missing),1.5
15,RNA1{[moe](G)[sp].[moe](G)p.[moe](G)p.[moe](T)p.[moe]([m5C])p.d(G)[sp].d(G)[sp].d(A)[sp].d(T)[sp].d(A)[sp].d(T)[sp].d(A)[sp].d(G)[sp].d([m5C])[sp].d(T)[sp].[moe](T)p.[moe](T)p.[moe](T)[sp].[moe](A)}$$$$ (last 3' nucleoside missing),5
16,RNA1{[moe](G)[sp].[moe](G)p.[moe](G)p.[moe]([m5C])p.[moe](A)p.d(A)[sp].d(A)[sp].d(A)[sp].d(A)[sp].d(T)[sp].d(A)[sp].d(G)[sp].d([m5C])[sp].d(A)[sp].d(A)[sp].[moe]([m5C])p.[moe](A)p.[moe](T)[sp].[moe](A)}$$$$ (last 3' nucleoside missing),5.8
17,RNA1{[moe](G)[sp].[moe](G)p.[moe](G)p.[moe]([m5C])p.[moe](A)p.d(G)[sp].d([m5C])[sp].d(A)[sp].d(A)[sp].d([m5C])[sp].d(A)[sp].d(G)[sp].d([m5C])[sp].d(T)[sp].d([m5C])[sp].[moe](T)p.[moe](T)p.[moe](G)[sp].[moe](A)}$$$$ (last 3' nucleoside missing),7
18,RNA1{[moe](G)[sp].[moe](G)p.[moe](G)p.[moe]([m5C])p.[moe](A)p.d([m5C])[sp].d(A)[sp].d(G)[sp].d(T)[sp].d(A)[sp].d(G)[sp].d(T)[sp].d(G)[sp].d(G)[sp].d(T)[sp].[moe](A)p.[moe](T)p.[moe]([m5C])[sp].[moe](A)}$$$$ (last 3' nucleoside missing),5.2
19,RNA1{[moe](G)[sp].[moe](G)p.[moe](T)p.[moe](A)p.[moe](A)p.d(G)[sp].d(G)[sp].d([m5C])[sp].d(A)[sp].d(G)[sp].d([m5C])[sp].d(T)[sp].d([m5C])[sp].d([m5C])[sp].d(T)[sp].[moe](G)p.[moe](A)p.[moe]([m5C])[sp].[moe](A)}$$$$ (last 3' nucleoside missing),1.3
20,RNA1{[moe](G)[sp].[moe](G)p.[moe](T)p.[moe](A)p.[moe](G)p.d(T)[sp].d([m5C])[sp].d(T)[sp].d(A)[sp].d(T)[sp].d(A)[sp].d(T)[sp].d(T)[sp].d(T)[sp].d(G)[sp].[moe](G)p.[moe](T)p.[moe](A)[sp].[moe](A)}$$$$ (last 3' nucleoside missing),6.2
21,RNA1{[moe](G)[sp].[moe](G)p.[moe](T)p.[moe](A)p.[moe](G)p.d([m5C])[sp].d([m5C])[sp].d([m5C])[sp].d([m5C])[sp].d(A)[sp].d(A)[sp].d(T)[sp].d(A)[sp].d([m5C])[sp].d(A)[sp].[moe](G)p.[moe](A)p.[moe](T)[sp].[moe](T)}$$$$ (last 3' nucleoside missing),1
22,RNA1{[moe](G)[sp].[moe](G)p.[moe](T)p.[moe](A)p.[moe](T)p.d(T)[sp].d(G)[sp].d(A)[sp].d([m5C])[sp].d(A)[sp].d([m5C])[sp].d([m5C])[sp].d(T)[sp].d([m5C])[sp].d([m5C])[sp].[moe](A)p.[moe](A)p.[moe]([m5C])[sp].[moe](T)}$$$$ (last 3' nucleoside missing),5
23,RNA1{[moe](G)[sp].[moe](G)p.[moe](T)p.[moe](T)p.[moe](A)p.d(A)[sp].d(G)[sp].d(T)[sp].d([m5C])[sp].d(T)[sp].d(G)[sp].d([m5C])[sp].d(T)[sp].d([m5C])[sp].d(T)[sp].[moe](T)p.[moe](T)p.[moe]([m5C])[sp].[moe](A)}$$$$ (last 3' nucleoside missing),4
24,RNA1{[moe](G)[sp].[moe](G)p.[moe](T)p.[moe](T)p.[moe](A)p.d(G)[sp].d(G)[sp].d(G)[sp].d([m5C])[sp].d(T)[sp].d(A)[sp].d(T)[sp].d(G)[sp].d(T)[sp].d(T)[sp].[moe](A)p.[moe](T)p.[moe](G)[sp].[moe](T)}$$$$ (last 3' nucleoside missing),6
25,RNA1{[moe](G)[sp].[moe](G)p.[moe](T)p.[moe](T)p.[moe](T)p.d(A)[sp].d(G)[sp].d(G)[sp].d(T)[sp].d([m5C])[sp].d(A)[sp].d(A)[sp].d([m5C])[sp].d([m5C])[sp].d(A)[sp].[moe](A)p.[moe](T)p.[moe](T)[sp].[moe](T)}$$$$ (last 3' nucleoside missing),6
26,RNA1{[moe](G)[sp].[moe](G)p.[moe](T)p.[moe](T)p.[moe](T)p.d(A)[sp].d(G)[sp].d(T)[sp].d(G)[sp].d(T)[sp].d([m5C])[sp].d(A)[sp].d(T)[sp].d(A)[sp].d(T)[sp].[moe](G)p.[moe](T)p.[moe](A)[sp].[moe](G)}$$$$ (last 3' nucleoside missing),5.5
27,RNA1{[moe](G)[sp].[moe](G)p.[moe](T)p.[moe]([m5C])[sp].d(A)[sp].d(T)[sp].d([m5C])[sp].d(T)[sp].d([m5C])[sp].d(G)[sp].d(G)[sp].d(G)[sp].[moe](T)p.[moe](A)p.[moe](T)p.[moe](A)[sp].[moe](T)}$$$$ (last 3' nucleoside missing),6.3
